One series concerns Wnt signaling. Description: Canonical Wnt signaling in HUVECs (immunoblotting, β-catenin immunofluorescence). Format: cell-based, human. The method, then:
FIG. 12 is a panel with a schematic, pictures showing that Dand5 reduces canonical Wnt signaling in HUVECs. HUVECs were plated to confluence and received a 2 h scratch in the presence or absence of Dand5 ([…]) or IWR1 (3 μM). β-catenin (green) localization was examined by immunofluorescence with phalloidin and DAPI (nuclei) to identify the cell boundaries and nucleus. […] Scale bars, […]).
Cells were washed with cold PBS and extracted in Laemmli's buffer, followed by sonication. Samples were run on SDS-PAGE gels and transferred onto nitrocellulose membranes. Membranes were blocked with 5% Bovine Serum Albumin (BSA) and probed with primary antibodies overnight at 4° C.: beta-Catenin (Cell Signaling Technology), phospho-beta-catenin (Cell Signaling Technology), Axin2 (Cell Signaling Technology), beta-Actin (Santa Cruz Technologies). HRP-conjugated secondary antibodies (Vector Laboratories) were used to detect primary antibodies.
We next evaluated the molecular mechanisms underlying the effects of DAND5 on endothelial cells. […] Wnt signaling regulates fundamental aspects of vascular development, including cell fate specification, proliferation and survival. […] HUVECs were treated for up to 24 hours with DAND5 or IWR-1, an inhibitor of Wnt canonical signaling. Protein extracts were harvested and subjected to immunoblotting against downstream effectors of Wnt signaling. […] The levels of β-catenin at different subcellular localizations are regulated by a variety of processes including site-specific phosphorylation of β-catenin. In the absence of an active Wnt signaling, β-catenin localization at cellular junctions is reduced and cytoplasmic β-catenin associates with the destruction complex (6).

For the next series, the system named is HUVECs. Description: Free radicals / ROS in HUVECs (DCFDA, MitoSoxRed). It is filed as cell-based, human. Conditions: HUVECs treated with DAND5 plus NAC. The method, then: FIG. 8 is a panel with graphs and pictures showing that Dand5 induces mitochondrial oxidative stress and alters ATP levels in HUVECs. FIG. 8A: HUVEC cells were treated with Dand5 in the presence or not of N-acetylcysteine (NAC) for up to 48 hours. Cells were then incubated with H2DCFDA. Hydrogen peroxide treated cells (H2O2) were included as a positive control. Fluorescence was measured at Ex: 485 nm and Em: 535 nm in a plate reader. Relative Fluorescence Units (RFU) were generated by normalizing the reading of each well to Hoescht staining (n=3,*p<0.05 **p<0.001). FIG. 8B: HUVEC cells were treated with Dand5 in for up to 48 hours. Cells were incubated with MitoSox Red. 3-nitro-proprionic acid (3-NP) treated cells were also examined as a positive control. Fluorescence was measured at Ex: 544 nm and Em: 590 nm. Relative Fluorescence Units (RFU) were generated by normalizing the reading of each well to Hoescht staining (n=3,*p<0.05). FIG. 8C: Primary culture of choroidal sprouts were treated with Dand5 in the absence or presence of NAC. FIG. 8D: Quantification of sprouting area by Image J. FIG. 8E: The ratio of NAD+ to NADH in whole cell extracts was determined using an Alcohol Dehydrogenase/Malate Dehydrogenase enzymatic cycling assay. Cells treated to hypoxic conditions (4% O2 for 3 hours) were included as a positive control (n=3,*p<0.05, **p<0.01). Likewise, glucose uptake was reduced in Dand5-treated HUVECs after 1 hour, while lactate levels were increased (lower panel). FIG. 8F: ATP levels were reduced in HUVECs exposed to Dand5 at 1, 6 and 24 hours (n=3,*p=0.05).
We exposed or not HUVECs to recombinant DAND5 and measured the concentration of free radicals using DCFDA and MitoSoxRed™. […] To further test this, we measure the NAD+/NADH ratio in cells treated or not with DAND5. […] Likewise, glucose uptake was reduced and lactate levels were increased in DAND5-treated HUVECs after 1 h (FIG. 8E, lower panel).

The next series has as its system mouse choroidal explants. Description: Choroidal explant sprouting in culture. Format: cell-based. Conditions: mouse choroidal explants, DAND5 plus NAC. The protocol:
FIG. 1 is a panel with pictures, bar graphs, and graphs showing that Dand5 reduces VEGF-mediated sprouting angiogenesis in cultured endothelial cells. FIG. 1A: HUVECs grown in a fibrinogen gel were treated with VEGF to induce tube formation in the presence or absence of Dand5. […] FIG. 1B: HUVECs were plated to confluency and scratched to stimulate a wound in the presence or absence of Dand5. Scale bar, 100 μm. FIG. 1C: Quantification of tube formation in FIG. 1A n=3, *p<0.05, **p<0.01). FIG. 1E: Choroids were isolated from wild-type mice and cultured in vitro in the absence or presence of Dand5. […] FIG. 1F: Quantification of sprouting areas in choroidal sprouts (n=3, ***p<0.0001). […] FIG. 1H: HUVECs were cultured in the presence or absence of Dand5 and analyzed by immunofluorescence using antibodies against phospho-Histone 3 (PH3), a marker of cellular mitosis, and phalloidin and DAPI (nuclei). […] FIG. 1I: Quantification immunofluorescent staining of phospho-histone 3 positive cells. […] FIG. 1K: Quantification of immunofluorescent staining of cleaved caspase 3 (n=2, n.s.).
To evaluate the cellular mechanisms underlying the inhibitory effects of DAND5 on endothelial cells sprouting, we assessed the effects of DAND5 on endothelial cell migration and proliferation. […]
We exposed or not HUVECs to recombinant DAND5 and measured the concentration of free radicals using DCFDA and MitoSoxRed™. […]

Another series concerns geographic atrophy (GA). Conditions: in vivo; cited from earlier work.
The test system of the next series is Wnt-induced angiogenesis. Description: Wnt1 and DAND5 co-injection during retinal vascular development (P1 to P5). It is filed as in vivo, mouse. The protocol: FIG. 13 is a panel with pictures and graphs showing that Dand5 opposes Wnt1-mediated hypervascularization during retinal vascular development. FIG. 13A: Schematic representation of experimental design. C57B6 pups were injected at P1 with PBS, Dand5 (60 ng/mL), Wnt1, or Wnt1 and Dand5 together at various molar ratios (1N, 5N and 10N). FIG. 13B: Representative images of retinas treated with PBS, Dand5 (1N) or Wnt1 (1N). FIG. 13C: Representative images of retinas treated with PBS or with Wnt1 (5N and 10N) alone or in combination with Danb5. Dand5 Flatmounts retinas were stained with Isolectin B4 to visualize the vasculature. FIG. 13D: Quantification of vascular branches in treated eyes. […] To address the antagonism of DAND5 on Wnt-induced angiogenesis, retinas were injected with recombinant DAND5 (60 ng) with increasing concentrations of Wnt1 (0, 1, 5 or 10× molar ratio) at P1 and retinas were harvested at P5 (FIG. 13A).

Where [1] appears, read: HUVECs treated for up to 24 hours, immunoblotting.

Results on five molecules are retold here after patent US20220265772A1, “USES OF DAN FAMILY BMP ANTAGONISTS FOR INHIBITING OCULAR NEOVASCULARIZATION AND TREATING OCULAR CONDITIONS” (9636137 Canada Inc., priority 2019, published 2022).

In the case of `O=C(Nc1cccc2cccnc12)c1ccc(N2C(=O)[C@@H]3[C@H](C2=O)[C@@H]2C=C[C@H]3C2)cc1` [IWR-1, reference compound], in the series with Wnt signaling (setting [1]), the “levels of Axin2” value is listed as “increased levels of Axin2”, the “levels of phosphorylated beta-catenin” value is reported as “increased levels of phosphorylated beta-catenin” and the “levels of total beta-catenin” value is “decreased levels of total beta-catenin”. In addition, the “cytoplasmic β-catenin” value in the series on Wnt signaling (confluent HUVECs, 2 h scratch, Dand5 60n/mL or IWR1 3 μM) is “increased cytoplasmic β-catenin”.
`CC(=O)N[C@@H](CS)C(=O)O` [NAC, N-acetyl cystein, reference compound]: the “reversal of DAND5-induced free radical elevation” value in the series on HUVECs was “could be overcome by exposing cells to N-acetyl cystein (NAC)”. Moreover, in the series with mouse choroidal explants, the “growth of DAND5-treated choroidal explants when also treated with NAC” value is “partially rescued”.
Take bevacizumab: VEGF inhibitor: the “risk of geographic atrophy (GA) progression” value in the series on geographic atrophy (GA) is recorded as “increased risks of geographic atrophy (GA) progression”.
Take ranibizumab: VEGF inhibitor: in the series on geographic atrophy (GA), the “risk of geographic atrophy (GA) progression” value is “increased risks of geographic atrophy (GA) progression”.

B1: Wnt1: Wnt1 injected into mouse retinas, alone or with DAND5, at increasing molar ratios (protein, UniProt P04426 28-370, looked up)
Proto-oncogene Wnt-1: ANSSGRWWGIVNIASSTNLLTDSKSLQLVLEPSLQLLSRKQRRLIRQNPGILHSVSGGLQSAVRECKWQFRNRRWNCPTAPGPHLFGKIVNRGCRETAFIFAITSAGVTHSVARSCSEGSIESCTCDYRRRGPGGPDWHWGGCSDNIDFGRLFGREFVDSGEKGRDLRFLMNLHNNEAGRTTVFSEMRQECKCHGMSGSCTVRTCWMRLPTLRAVGDVLRDRFDGASRVLYGNRGSNRASRAELLRLEPEDPAHKPPSPHDLVYFEKSPNFCTYSGRLGTAGTAGRACNSSSPALDGCELLCCGRGHRTRTQRVTERCNCTFHWCCHVSCRNCTHTRVLHECL
With B1, the retinal vascular density entry with Wnt-induced angiogenesis (Wnt1 injected at P1, retinas at P5, IsoB4 staining) is on record as “retinal vascular density was increased”. Also, the “retinal vascularization at 16.6 and 33.3 pmoles” value in the series with Wnt-induced angiogenesis (Wnt1 injections of 16.6 and 33.3 pmoles, P1 to P5) is given as “significant hypervascularization”. For the same molecule, the “rescue of the inhibitory effects of DAND5 on retinal angiogenesis” value in the series with Wnt-induced angiogenesis (concomitant injection of DAND5 (60 ng) with Wnt1 (10 molar ratio)) was “partially rescued the inhibitory effects of DAND5 on retinal angiogenesis”. Also, the “mutual antagonism on vascular branches” value in the series with Wnt-induced angiogenesis (quantification of vascular branches in treated eyes) was “mutually antagonist activities”.
